# Reference: publication PMC10882719 (Frontiers in Neuroscience, 2024)
# Read-outs that look alike come from different tables or passages of the source.
# Key:
# Assay type in all cases: cell-based
# 168 GPCRs [1] = molecular target: T1, 168 GPCRs (Homo sapiens, UniProt P16473); conditions: TSHR(L)
# T1 construct: host or cells: PathHunter cell lines
# 168 GPCRs [2] = molecular target: T2, 168 GPCRs (Homo sapiens, UniProt P18825); conditions: ADRA2C
# T2 construct: host or cells: PathHunter cell lines
# T2 sequence (P18825 1-462): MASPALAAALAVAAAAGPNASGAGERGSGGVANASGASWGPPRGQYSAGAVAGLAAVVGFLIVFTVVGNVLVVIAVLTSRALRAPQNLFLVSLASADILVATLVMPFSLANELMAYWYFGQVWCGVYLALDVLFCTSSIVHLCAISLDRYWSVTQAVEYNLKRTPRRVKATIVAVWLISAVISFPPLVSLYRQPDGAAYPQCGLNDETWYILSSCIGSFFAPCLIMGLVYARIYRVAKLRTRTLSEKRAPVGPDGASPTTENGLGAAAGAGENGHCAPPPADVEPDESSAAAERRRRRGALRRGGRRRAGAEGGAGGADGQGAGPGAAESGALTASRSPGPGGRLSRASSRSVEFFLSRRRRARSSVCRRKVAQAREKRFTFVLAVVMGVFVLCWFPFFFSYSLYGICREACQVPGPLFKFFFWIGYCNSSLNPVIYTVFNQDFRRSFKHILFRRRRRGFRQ
# 168 GPCRs [3] = molecular target: T3, 168 GPCRs (Homo sapiens, UniProt P21917)
# T3 construct: host or cells: PathHunter cell lines
# T3 sequence (P21917 1-419): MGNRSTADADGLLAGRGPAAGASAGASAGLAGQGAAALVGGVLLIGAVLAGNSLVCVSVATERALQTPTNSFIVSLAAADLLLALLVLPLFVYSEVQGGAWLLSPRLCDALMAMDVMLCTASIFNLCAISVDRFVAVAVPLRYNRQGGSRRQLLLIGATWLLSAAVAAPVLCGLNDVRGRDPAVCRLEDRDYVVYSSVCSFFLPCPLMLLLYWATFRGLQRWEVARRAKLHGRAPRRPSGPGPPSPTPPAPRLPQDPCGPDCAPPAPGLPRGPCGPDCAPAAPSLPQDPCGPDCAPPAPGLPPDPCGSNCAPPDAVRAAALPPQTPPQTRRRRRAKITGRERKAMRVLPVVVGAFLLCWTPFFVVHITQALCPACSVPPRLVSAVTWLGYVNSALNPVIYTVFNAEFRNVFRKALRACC
# 168 GPCRs [4] = molecular target: T4, 168 GPCRs (Homo sapiens, UniProt P30872); conditions: SSTR1
# T4 construct: host or cells: PathHunter cell lines
# 168 GPCRs [5] = molecular target: T5, 168 GPCRs (Homo sapiens, UniProt P32247)
# T5 construct: host or cells: PathHunter cell lines
# T5 sequence (P32247 1-399): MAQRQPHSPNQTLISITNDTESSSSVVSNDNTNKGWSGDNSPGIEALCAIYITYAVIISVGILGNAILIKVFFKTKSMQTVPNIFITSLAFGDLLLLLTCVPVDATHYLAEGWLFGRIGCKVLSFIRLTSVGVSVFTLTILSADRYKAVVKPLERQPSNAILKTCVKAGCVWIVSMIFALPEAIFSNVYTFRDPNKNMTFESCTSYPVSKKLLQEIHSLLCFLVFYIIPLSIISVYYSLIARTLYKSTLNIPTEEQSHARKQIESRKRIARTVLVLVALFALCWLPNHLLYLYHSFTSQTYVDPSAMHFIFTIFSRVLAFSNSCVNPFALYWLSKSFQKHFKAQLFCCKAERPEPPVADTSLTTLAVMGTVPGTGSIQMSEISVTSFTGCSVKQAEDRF
# 168 GPCRs [6] = molecular target: T6, 168 GPCRs (Homo sapiens, UniProt P41143); conditions: OPRD1
# T6 construct: host or cells: PathHunter cell lines
# 168 GPCRs [7] = molecular target: T7, 168 GPCRs (Homo sapiens, UniProt P51582); conditions: P2RY4
# T7 construct: host or cells: PathHunter cell lines
# 168 GPCRs [8] = molecular target: T8, 168 GPCRs (Homo sapiens, UniProt Q96G91); conditions: P2RY11
# T8 construct: host or cells: PathHunter cell lines
# T8 sequence (Q96G91 1-374): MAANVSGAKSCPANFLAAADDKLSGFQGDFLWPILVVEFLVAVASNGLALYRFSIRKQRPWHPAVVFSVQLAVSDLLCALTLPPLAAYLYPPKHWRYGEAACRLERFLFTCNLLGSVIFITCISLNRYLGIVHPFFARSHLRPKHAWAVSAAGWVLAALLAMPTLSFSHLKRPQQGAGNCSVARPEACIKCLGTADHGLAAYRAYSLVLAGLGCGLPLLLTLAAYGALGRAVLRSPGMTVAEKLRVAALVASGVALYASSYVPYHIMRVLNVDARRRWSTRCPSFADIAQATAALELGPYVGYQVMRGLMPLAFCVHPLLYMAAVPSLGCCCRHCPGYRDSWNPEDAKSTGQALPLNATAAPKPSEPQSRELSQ
# T7 sequence (P51582 whole entry): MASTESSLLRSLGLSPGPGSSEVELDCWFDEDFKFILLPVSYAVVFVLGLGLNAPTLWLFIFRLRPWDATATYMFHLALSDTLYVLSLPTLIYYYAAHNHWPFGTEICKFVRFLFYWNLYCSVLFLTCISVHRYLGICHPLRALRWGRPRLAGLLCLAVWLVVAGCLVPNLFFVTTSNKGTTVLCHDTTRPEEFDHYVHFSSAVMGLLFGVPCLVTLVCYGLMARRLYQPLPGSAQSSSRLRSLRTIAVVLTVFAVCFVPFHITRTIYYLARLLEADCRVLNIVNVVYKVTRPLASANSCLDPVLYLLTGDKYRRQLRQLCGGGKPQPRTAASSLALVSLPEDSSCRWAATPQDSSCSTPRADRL
# T1 sequence (P16473 21-764): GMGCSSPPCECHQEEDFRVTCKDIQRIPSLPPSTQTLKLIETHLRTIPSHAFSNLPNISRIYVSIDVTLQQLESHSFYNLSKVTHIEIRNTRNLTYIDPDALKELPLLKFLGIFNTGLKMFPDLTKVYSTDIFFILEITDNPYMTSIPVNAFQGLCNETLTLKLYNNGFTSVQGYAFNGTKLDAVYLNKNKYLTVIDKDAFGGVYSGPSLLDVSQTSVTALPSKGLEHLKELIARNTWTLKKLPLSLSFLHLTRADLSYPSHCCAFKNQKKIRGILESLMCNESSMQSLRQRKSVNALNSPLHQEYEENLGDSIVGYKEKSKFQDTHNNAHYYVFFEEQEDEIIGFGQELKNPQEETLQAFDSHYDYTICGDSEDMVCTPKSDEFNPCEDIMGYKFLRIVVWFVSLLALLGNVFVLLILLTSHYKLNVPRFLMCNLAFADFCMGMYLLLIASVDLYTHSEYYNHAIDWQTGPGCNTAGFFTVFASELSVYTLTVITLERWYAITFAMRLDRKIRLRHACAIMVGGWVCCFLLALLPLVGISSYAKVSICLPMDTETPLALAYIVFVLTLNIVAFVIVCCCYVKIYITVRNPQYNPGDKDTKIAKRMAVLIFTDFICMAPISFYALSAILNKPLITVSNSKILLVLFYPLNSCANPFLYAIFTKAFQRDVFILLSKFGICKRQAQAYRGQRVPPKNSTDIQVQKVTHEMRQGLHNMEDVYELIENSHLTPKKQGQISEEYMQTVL
# T4 sequence (P30872 whole entry): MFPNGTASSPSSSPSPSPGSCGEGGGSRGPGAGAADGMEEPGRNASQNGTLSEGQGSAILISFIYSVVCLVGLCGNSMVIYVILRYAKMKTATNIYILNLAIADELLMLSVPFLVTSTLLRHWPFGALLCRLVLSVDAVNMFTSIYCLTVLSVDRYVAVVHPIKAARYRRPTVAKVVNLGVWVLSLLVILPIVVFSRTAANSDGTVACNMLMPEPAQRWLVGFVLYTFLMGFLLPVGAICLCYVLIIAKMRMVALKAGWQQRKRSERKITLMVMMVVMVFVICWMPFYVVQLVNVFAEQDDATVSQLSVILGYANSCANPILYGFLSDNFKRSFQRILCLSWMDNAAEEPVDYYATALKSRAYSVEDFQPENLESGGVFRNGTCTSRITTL
# T6 sequence (P41143 whole entry): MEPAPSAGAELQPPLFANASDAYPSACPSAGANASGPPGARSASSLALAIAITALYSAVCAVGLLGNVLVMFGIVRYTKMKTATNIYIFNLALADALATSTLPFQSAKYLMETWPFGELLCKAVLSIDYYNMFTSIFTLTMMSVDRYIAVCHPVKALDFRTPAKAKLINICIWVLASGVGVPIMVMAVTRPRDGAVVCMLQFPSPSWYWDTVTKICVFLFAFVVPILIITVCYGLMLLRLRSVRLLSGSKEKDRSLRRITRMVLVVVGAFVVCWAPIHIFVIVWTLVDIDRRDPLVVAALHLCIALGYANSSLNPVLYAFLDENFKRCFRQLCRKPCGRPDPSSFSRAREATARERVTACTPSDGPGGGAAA
Compound,% Agonist Activity (168 GPCRs [1]; Conc 1 uM),% Antagonist Activity (168 GPCRs [1]; Conc 1 uM),% Agonist Activity (168 GPCRs [1]; Conc 10 uM),% Antagonist Activity (168 GPCRs [1]; Conc 10 uM),% Agonist Activity (168 GPCRs [2]; 1 uM),% Antagonist Activity (168 GPCRs [2]; 1 uM),% Agonist Activity (168 GPCRs [2]; 10 uM),% Antagonist Activity (168 GPCRs [2]; 10 uM),"% Agonist Activity (168 GPCRs [3]; DRD4, 1 uM)","% Antagonist Activity (168 GPCRs [3]; DRD4, 1 uM)","% Agonist Activity (168 GPCRs [3]; DRD4, 10 uM)","% Antagonist Activity (168 GPCRs [3]; DRD4, 10 uM)",% Agonist Activity (168 GPCRs [4]; Conc 1 uM),% Antagonist Activity (168 GPCRs [4]; Conc 1 uM),% Agonist Activity (168 GPCRs [4]; Conc 10 uM),% Antagonist Activity (168 GPCRs [4]; Conc 10 uM),"% Agonist Activity (168 GPCRs [5]; BRS3, 1 uM)","% Antagonist Activity (168 GPCRs [5]; BRS3, 1 uM)","% Agonist Activity (168 GPCRs [5]; BRS3, 10 uM)","% Antagonist Activity (168 GPCRs [5]; BRS3, 10 uM)",further results
CNC(C)C(=O)c1ccc2c(c1)OCO2 (stereo not shown) [methylone],-1.2%,6.1%,0.7%,-6.6%,-2.5%,-4.3%,0.1%,17.6%,-8%,8.4%,-9.4%,12.2%,-5.3%,32.4%,-7.4%,20.9%,4.5%,18.3%,-4.6%,10.1%,% Agonist Activity (168 GPCRs [6]; Conc 1 uM): -2%; % Antagonist Activity (168 GPCRs [6]; Conc 1 uM): -2.7%; % Agonist Activity (168 GPCRs [6]; Conc 10 uM): -1.5%; % Antagonist Activity (168 GPCRs [6]; Conc 10 uM): 3.5%; % Agonist Activity (168 GPCRs [7]; Conc 1 uM): -3.3%; % Antagonist Activity (168 GPCRs [7]; Conc 1 uM): 15.1%; % Agonist Activity (168 GPCRs [7]; Conc 10 uM): -4.1%; % Antagonist Activity (168 GPCRs [7]; Conc 10 uM): 17.5%; % Agonist Activity (168 GPCRs [8]; Conc 1 uM): 0.5%; % Antagonist Activity (168 GPCRs [8]; Conc 1 uM): 2.7%; % Agonist Activity (168 GPCRs [8]; Conc 10 uM): -0.3%; % Antagonist Activity (168 GPCRs [8]; Conc 10 uM): 6.6%
"CNC(C)Cc1ccc2c(c1)OCO2 (stereo not shown) [MDMA, 3,4-Methylenedioxy methamphetamine, reference compound]",-0.6%,-8%,2.8%,-5%,3.9%,16.4%,6.9%,38.1%,-0.7%,14.9%,-0.1%,7.7%,-9%,5.6%,-12.3%,7.5%,2.6%,7.9%,-3%,3.8%,% Agonist Activity (168 GPCRs [6]; Conc 1 uM): -0.7%; % Antagonist Activity (168 GPCRs [6]; Conc 1 uM): -15.5%; % Agonist Activity (168 GPCRs [6]; Conc 10 uM): -1.1%; % Antagonist Activity (168 GPCRs [6]; Conc 10 uM): -17.6%; % Agonist Activity (168 GPCRs [7]; Conc 1 uM): -4.2%; % Antagonist Activity (168 GPCRs [7]; Conc 1 uM): 5.7%; % Agonist Activity (168 GPCRs [7]; Conc 10 uM): -7.2%; % Antagonist Activity (168 GPCRs [7]; Conc 10 uM): -0.6%; % Agonist Activity (168 GPCRs [8]; Conc 1 uM): 0.3%; % Antagonist Activity (168 GPCRs [8]; Conc 1 uM): 17.9%; % Agonist Activity (168 GPCRs [8]; Conc 10 uM): 0.7%; % Antagonist Activity (168 GPCRs [8]; Conc 10 uM): 9%
